Source: ChEMBL document CHEMBL1129805, “Novel conformationally constrained analogues of diacylglycerol. Protein kinase C binding affinity of simplified compounds based on a 6-membered lactam moiety” (Bioorg Med Chem Lett, 1997)

What was measured:
[1] = target: Protein kinase C delta type (Homo sapiens, UniProt Q05655); experiment: Displacement of [3H]PDBu from Protein kinase C delta
[2] = test system: HL-60; experiment: Effective dose required to […] the differentiation to monocytes of HL-60 cells; Weaker activity; assay type: functional; settings: Homo sapiens, read-out: ED50 (the source's name)
[3] = test system: HL-60; experiment: Effective dose required to […] the differentiation to monocytes of HL-60 cells; Inactive; assay type: functional; settings: Homo sapiens, read-out: ED50 (the source's name)
[4] = test system: HL-60; experiment: Effective dose required to […] the differentiation to monocytes of HL-60 cells; assay type: functional; settings: Homo sapiens, read-out: ED50 (the source's name)

Sequence of Protein kinase C delta type (Q05655 whole entry): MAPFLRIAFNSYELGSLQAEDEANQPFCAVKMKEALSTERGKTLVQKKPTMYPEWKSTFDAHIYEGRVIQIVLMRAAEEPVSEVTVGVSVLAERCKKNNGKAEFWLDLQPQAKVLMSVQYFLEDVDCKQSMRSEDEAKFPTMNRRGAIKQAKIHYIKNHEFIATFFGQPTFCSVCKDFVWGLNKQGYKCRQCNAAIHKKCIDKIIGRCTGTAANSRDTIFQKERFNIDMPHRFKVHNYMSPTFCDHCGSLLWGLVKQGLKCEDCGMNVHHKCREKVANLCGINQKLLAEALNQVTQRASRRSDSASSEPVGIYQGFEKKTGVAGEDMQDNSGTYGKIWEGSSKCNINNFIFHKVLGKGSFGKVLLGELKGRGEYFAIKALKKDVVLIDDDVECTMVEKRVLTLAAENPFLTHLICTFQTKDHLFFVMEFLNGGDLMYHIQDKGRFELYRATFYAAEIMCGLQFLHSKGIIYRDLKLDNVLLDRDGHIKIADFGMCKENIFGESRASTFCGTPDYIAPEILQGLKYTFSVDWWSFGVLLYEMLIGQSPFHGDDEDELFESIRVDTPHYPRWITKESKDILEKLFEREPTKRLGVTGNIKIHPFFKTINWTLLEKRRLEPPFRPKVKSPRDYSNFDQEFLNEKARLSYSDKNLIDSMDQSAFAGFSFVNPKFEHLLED

Compound	Ki [1] [nM]	EC50 [2] [nM]	EC50 [3] [nM]	EC50 [4] [nM]
CCCCCCCCCCCCCCN1C[C@H](CO)NC(=O)[C@@H]1C(C)C	2700	1000		
CCCCCCCCCCCCCCN1C[C@H](CO)NC(=O)[C@H]1C(C)C	12000		> 5000	
CCCCCCCCCCCCCCN1C[C@@H](CO)NC(=O)[C@H]1C(C)C	6500			
CCCCCCCCCCCCCCN1C[C@@H](CO)NC(=O)[C@@H]1C(C)C	290			200
